Assay results as given in patent US12421225B2, “Heteroaromatic amide derivative and medicament containing the same” (KAKEN PHARMACEUTICAL CO., LTD., priority 2018, dated 2025).

Biological target: human Nav1.7 (Homo sapiens (Human), UniProt Q15858)
Test: Human Nav1.7 inhibitory activity evaluation (automated patch clamp QPatch16X, HEK293A cells stably expressing human Nav1.7 and human Navβ1)
Type: cell-based
Conditions: human Nav1.7, automated patch clamp
How it was run: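 IC50 calculated from the concentration-response of inward current evoked by the second −10 mV, 50 ms depolarisation, which follows a 15 s conditioning step at roughly 30-40% inactivation and a 100 ms −120 mV interval. Cells: HEK293A expressing human Nav1.7/Navβ1, automated patch clamp, room temperature, 0.1% DMSO final.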

Sequence of human Nav1.7 (Q15858 whole entry): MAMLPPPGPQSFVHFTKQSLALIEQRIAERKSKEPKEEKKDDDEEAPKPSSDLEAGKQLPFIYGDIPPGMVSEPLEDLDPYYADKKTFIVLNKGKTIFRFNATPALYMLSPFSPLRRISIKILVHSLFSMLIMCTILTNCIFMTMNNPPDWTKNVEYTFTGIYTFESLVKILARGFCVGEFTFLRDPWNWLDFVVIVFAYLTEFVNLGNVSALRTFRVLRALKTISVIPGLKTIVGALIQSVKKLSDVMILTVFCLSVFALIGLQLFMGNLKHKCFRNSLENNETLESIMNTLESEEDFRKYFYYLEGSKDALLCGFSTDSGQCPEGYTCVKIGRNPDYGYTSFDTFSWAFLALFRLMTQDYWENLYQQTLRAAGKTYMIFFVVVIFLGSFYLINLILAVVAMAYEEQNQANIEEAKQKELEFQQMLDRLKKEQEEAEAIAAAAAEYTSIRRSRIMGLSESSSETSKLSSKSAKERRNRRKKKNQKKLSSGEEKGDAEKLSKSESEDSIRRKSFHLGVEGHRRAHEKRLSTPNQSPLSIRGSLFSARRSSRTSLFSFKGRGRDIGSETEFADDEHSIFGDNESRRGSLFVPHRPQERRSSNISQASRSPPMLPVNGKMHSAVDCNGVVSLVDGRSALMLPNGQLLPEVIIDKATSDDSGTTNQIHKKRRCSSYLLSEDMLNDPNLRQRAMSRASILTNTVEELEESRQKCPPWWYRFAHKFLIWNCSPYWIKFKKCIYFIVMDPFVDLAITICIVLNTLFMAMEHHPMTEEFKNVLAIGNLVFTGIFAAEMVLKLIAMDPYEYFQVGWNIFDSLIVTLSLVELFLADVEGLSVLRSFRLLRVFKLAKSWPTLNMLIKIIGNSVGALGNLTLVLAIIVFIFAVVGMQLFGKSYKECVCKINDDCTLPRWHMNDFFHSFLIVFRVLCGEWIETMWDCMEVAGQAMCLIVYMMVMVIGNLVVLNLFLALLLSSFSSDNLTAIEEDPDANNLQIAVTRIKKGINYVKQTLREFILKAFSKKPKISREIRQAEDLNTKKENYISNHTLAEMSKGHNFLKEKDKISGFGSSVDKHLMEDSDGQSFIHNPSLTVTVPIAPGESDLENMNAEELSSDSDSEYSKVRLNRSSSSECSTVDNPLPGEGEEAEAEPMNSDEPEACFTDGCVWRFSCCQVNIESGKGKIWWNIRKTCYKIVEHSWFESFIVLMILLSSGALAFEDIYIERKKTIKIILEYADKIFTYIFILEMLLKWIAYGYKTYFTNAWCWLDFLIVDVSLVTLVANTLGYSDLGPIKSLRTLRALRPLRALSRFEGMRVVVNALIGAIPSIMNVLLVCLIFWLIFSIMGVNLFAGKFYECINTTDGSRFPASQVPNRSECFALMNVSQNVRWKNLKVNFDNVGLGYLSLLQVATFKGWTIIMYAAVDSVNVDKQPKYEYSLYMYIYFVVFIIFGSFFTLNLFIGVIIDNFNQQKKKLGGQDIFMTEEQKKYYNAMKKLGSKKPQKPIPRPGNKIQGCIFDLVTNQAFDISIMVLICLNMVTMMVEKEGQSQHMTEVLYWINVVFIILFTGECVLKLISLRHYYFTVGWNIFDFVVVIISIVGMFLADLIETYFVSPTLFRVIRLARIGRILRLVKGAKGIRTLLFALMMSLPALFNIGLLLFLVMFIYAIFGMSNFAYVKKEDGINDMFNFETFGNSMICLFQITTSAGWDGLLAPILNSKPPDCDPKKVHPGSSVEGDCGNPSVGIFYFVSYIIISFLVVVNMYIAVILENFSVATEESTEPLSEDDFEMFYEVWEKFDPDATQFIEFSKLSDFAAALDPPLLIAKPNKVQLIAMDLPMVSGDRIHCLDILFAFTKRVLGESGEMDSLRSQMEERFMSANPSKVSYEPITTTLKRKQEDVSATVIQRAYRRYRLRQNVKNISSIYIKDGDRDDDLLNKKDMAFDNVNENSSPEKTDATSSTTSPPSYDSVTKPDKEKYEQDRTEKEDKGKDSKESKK
Sequence of human Nav1.7 (Q07699 19-218 partner): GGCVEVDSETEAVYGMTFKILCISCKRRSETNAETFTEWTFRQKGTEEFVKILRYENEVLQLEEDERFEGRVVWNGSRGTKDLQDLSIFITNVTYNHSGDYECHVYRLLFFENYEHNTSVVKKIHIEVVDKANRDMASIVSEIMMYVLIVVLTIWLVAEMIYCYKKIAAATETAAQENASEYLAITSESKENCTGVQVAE

`O=C(N[C@H]1COc2ccc(Cl)cc2C1)c1cc2n(n1)CCC(C#CC1CC1)O2` (stereo partly drawn) [Example 406] and `CCOC(F)C1CCn2nc(C(=O)N[C@H]3COc4ccc(Cl)cc4C3)cc2O1` (stereo partly drawn) [Example 409] cannot be ordered by IC50: < 1000 nM for the first, < 1000 nM for the second.

`N#Cc1ccc2c(c1)C[C@@H](NC(=O)c1cc3n(n1)CCC(COCC1CCC1)O3)CO2` (stereo partly drawn) [Example 410] and `N#Cc1ccc2c(c1)C[C@@H](NC(=O)c1cc3n(n1)CCC(COC1CC(F)C1)O3)CO2` (stereo partly drawn) [Example 439] cannot be ordered by IC50: < 1000 nM for the first, < 10000 nM for the second.

`O=C(N[C@H]1COc2ccc(Cl)cc2C1)c1cc2n(n1)CCC(COCC1CCOCC1)O2` (stereo partly drawn) [Example 413] and `O=C(N[C@H]1COc2ccc(Cl)cc2C1)c1cc2n(n1)CC(COCC1CC1)O2` (stereo partly drawn) [Example 469] cannot be ordered by IC50: < 1000 nM for the first, < 1000 nM for the second.

`O=C(c1cc2n(n1)CCC(COCC1COC1)O2)N(CC1COC1)[C@H]1COc2ccc(-c3ccccn3)cc2C1` (stereo partly drawn) [Example 414] and `O=C(N[C@H]1COc2ccc(-c3cnn(CC(F)(F)F)c3)cc2C1)c1cc2n(n1)CCC(COCC1CC1)O2` (stereo partly drawn) [Example 430] cannot be ordered by IC50: < 10000 nM for the first, < 1000 nM for the second.

`O=C(N[C@H]1COc2ccc(Cl)cc2C1)c1cc2n(n1)CCC1(CCOCC1)O2` [Example 416] and `O=C(N[C@H]1COc2ccc(Cl)cc2C1)c1cc2n(n1)CCC(COC(F)(F)F)O2` (stereo partly drawn) [Example 420] cannot be ordered by IC50: < 10000 nM for the first, < 1000 nM for the second.

`N#Cc1ccc2c(c1)C[C@@H](NC(=O)c1cc3n(n1)CCC(C(O)C(F)(F)F)O3)CO2` (stereo partly drawn) [Example 417] and `N#Cc1ccc2c(c1)C[C@@H](NC(=O)c1cc3n(n1)CCC(C(F)(F)F)CO3)CO2` (stereo partly drawn) [Example 483] cannot be ordered by IC50: < 10000 nM for the first, < 10000 nM for the second.

`N#Cc1ccc2c(c1)C[C@@H](NC(=O)c1cc3n(n1)CCC(COCCC(F)(F)F)O3)CO2` (stereo partly drawn) [Example 418] and `N#Cc1ccc2c(c1)C[C@@H](NC(=O)c1cc3n(n1)CCC(COCC1(C(F)(F)F)CC1)O3)CO2` (stereo partly drawn) [Example 434] cannot be ordered by IC50: < 10000 nM for the first, < 1000 nM for the second.

`CC1(COCC2CC2)CCn2nc(C(=O)N[C@H]3COc4ccc(C#N)cc4C3)cc2O1` (stereo partly drawn) [Example 419] and `N#Cc1ccc2c(c1)C[C@@H](NC(=O)c1cc3n(n1)CC(CCOCC1(C(F)(F)F)CC1)O3)CO2` (stereo partly drawn) [Example 465] cannot be ordered by IC50: < 10000 nM for the first, < 1000 nM for the second.

`N#Cc1ccc2c(c1)C[C@@H](NC(=O)c1cc3n(n1)CCC(CSCC(F)(F)F)O3)CO2` (stereo partly drawn) [Example 423] and `C#Cc1ccc2c(c1)C[C@@H](NC(=O)c1cc3n(n1)CCC(COCC(F)(F)F)O3)CO2` (stereo partly drawn) [Example 436] cannot be ordered by IC50: < 1000 nM for the first, < 1000 nM for the second.

`N#Cc1ccc2c(c1)C[C@@H](NC(=O)c1cc3n(n1)CCC(CSCC(F)(F)F)O3)CO2` (stereo partly drawn) [Example 424] and `O=C(N[C@H]1COc2ccc(Cl)cc2C1)c1cc2n(n1)CCC(COCC(F)(F)F)O2` (stereo partly drawn) [Example 442] cannot be ordered by IC50: < 10000 nM for the first, < 1000 nM for the second.

`O=C(N[C@H]1COc2ccc(C(F)(F)F)cc2C1)c1cc2n(n1)CCC(CCOC(F)F)O2` (stereo partly drawn) [Example 433] and `O=C(N[C@H]1COc2ccc(CC(F)(F)F)cc2C1)c1cc2n(n1)CC(CCOCC(F)F)O2` (stereo partly drawn) [Example 479] cannot be ordered by IC50: < 1000 nM for the first, < 1000 nM for the second.

`O=C(N[C@H]1COc2ccc(-c3cnccn3)cc2C1)c1cc2n(n1)CCC(COCC1(C(F)(F)F)CC1)O2` (stereo partly drawn) [Example 435] and `O=C(N[C@H]1COc2ccc(-c3cnccn3)cc2C1)c1cc2n(n1)CC(CCOCC1(C(F)(F)F)CC1)O2` (stereo partly drawn) [Example 467] cannot be ordered by IC50: < 1000 nM for the first, < 1000 nM for the second.

`O=C(N[C@H]1COc2ccc(COCC(F)(F)F)cc2C1)c1cc2n(n1)CCC(COC1CCC1)O2` (stereo partly drawn) [Example 438] and `O=C(N[C@H]1COc2ccc(COCC(F)(F)F)cc2C1)c1cc2n(n1)CC(CCOC1CCC1)O2` (stereo partly drawn) [Example 472] cannot be ordered by IC50: < 1000 nM for the first, < 1000 nM for the second.

`O=C(N[C@H]1COc2ccc(COCC(F)(F)F)cc2C1)c1cc2n(n1)CCC(CN1CC(F)(F)C1)O2` (stereo partly drawn) [Example 440] and `O=C(N[C@H]1COc2ccc(CC(F)(F)F)cc2C1)c1cc2n(n1)CCC(COCC(F)(F)F)O2` (stereo partly drawn) [Example 441] cannot be ordered by IC50: < 10000 nM for the first, < 1000 nM for the second.

`CC1CCn2nc(C(=O)N[C@H]3COc4ccc(Cl)cc4C3)c(-c3ccccc3)c2O1` (stereo partly drawn) [Example 444] and `O=C(N[C@H]1COc2ccc(Cl)cc2C1)c1nn2c(c1-c1ccccc1)CN(CC(F)(F)F)CC2` [Example 509] cannot be ordered by IC50: < 1000 nM for the first, < 10000 nM for the second.

`Cc1c(C(=O)N[C@H]2COc3ccc(Cl)cc3C2)nn2c1OC(C)(C)C2` [Example 446] and `O=C(N[C@H]1COc2ccc(Cl)cc2C1)c1cc2n(n1)CC(Cn1cccn1)O2` (stereo partly drawn) [Example 453] cannot be ordered by IC50: < 10000 nM for the first, < 10000 nM for the second.

`O=C(N[C@H]1COc2ccc(Cl)cc2C1)c1cc2n(n1)CC(C(F)(F)COCC1CC1)O2` (stereo partly drawn) [Example 449] and `O=C(N[C@H]1COc2ccc(C3CC3)cc2C1)c1cc2n(n1)CC(COCC1CC1)O2` (stereo partly drawn) [Example 463] cannot be ordered by IC50: < 1000 nM for the first, < 1000 nM for the second.

`CCN(CC1Cn2nc(C(=O)N[C@H]3COc4ccc(C#N)cc4C3)cc2O1)CC(F)(F)F` (stereo partly drawn) [Example 452] and `N#Cc1ccc2c(c1)C[C@@H](NC(=O)c1cc3n(n1)CC(CCn1cc(C(F)(F)F)cn1)O3)CO2` (stereo partly drawn) [Example 455] cannot be ordered by IC50: < 10000 nM for the first, < 1000 nM for the second.

`CC1(C)CN(CC2Cn3nc(C(=O)N[C@H]4COc5ccc(C(F)(F)F)cc5C4)cc3O2)CCO1` (stereo partly drawn) [Example 458] and `O=C(N[C@H]1COc2ccc(C(F)(F)F)cc2C1)c1cc2n(n1)CC(CCN1CCC(F)(F)C1)O2` (stereo partly drawn) [Example 476] cannot be ordered by IC50: < 1000 nM for the first, < 1000 nM for the second.

`O=C(N[C@H]1COc2ccc(CC(F)F)cc2C1)c1cc2n(n1)CC(CCOC1CCC1)O2` (stereo partly drawn) [Example 471] and `O=C(N[C@H]1COc2ccc(CC(F)F)cc2C1)c1cc2n(n1)CC(CCOCC(F)F)O2` (stereo partly drawn) [Example 478] cannot be ordered by IC50: < 1000 nM for the first, < 1000 nM for the second.

`Cn1cc(-c2ccc3c(c2)C[C@@H](NC(=O)c2cc4n(n2)CC(CCOC2CCC2)O4)CO3)cn1` (stereo partly drawn) [Example 473] and `Cc1cnc(-c2ccc3c(c2)C[C@@H](NC(=O)c2cc4n(n2)CC(CCOC2CCC2)O4)CO3)cn1` (stereo partly drawn) [Example 475] cannot be ordered by IC50: < 1000 nM for the first, < 1000 nM for the second.

`O=C(N[C@H]1COc2ccc(-c3cnccn3)cc2C1)c1cc2n(n1)CC(CCOC1CCC1)O2` (stereo partly drawn) [Example 474] and `O=C(N[C@H]1COc2ccc(Cl)cc2C1)c1cc2n(n1)CCCC(c1ccccc1)O2` (stereo partly drawn) [Example 480] cannot be ordered by IC50: < 1000 nM for the first, < 10000 nM for the second.

`O=C(N[C@H]1COc2ccc(COCC(F)(F)F)cc2C1)c1cc2n(n1)CCC(OCC(F)(F)F)CO2` (stereo partly drawn) [Example 482] and `O=C(N[C@H]1COc2ccc(COCC(F)(F)F)cc2C1)c1cc2n(n1)CCN(CCC1CC1)C2` [Example 505] cannot be ordered by IC50: < 1000 nM for the first, < 1000 nM for the second.

`COc1cccc(-c2c(C(=O)N[C@H]3COc4ccc(C(F)(F)F)cc4C3)nn3c2COCC3)n1` [Example 484] and `O=C(N[C@H]1COc2ccc(C(F)(F)F)cc2C1)c1nn2c(c1-c1cccc(Cl)n1)COCC2` [Example 485] cannot be ordered by IC50: < 1000 nM for the first, < 1000 nM for the second.

`O=C(N[C@H]1COc2ccc(C(F)(F)F)cc2C1)c1nn2c(c1-c1ccn[nH]1)OCCC2` [Example 486] and `N#Cc1ccc2c(c1)C[C@@H](NC(=O)c1cc3n(n1)CCN(C1(CC(F)(F)F)CC1)C3)CO2` [Example 503] cannot be ordered by IC50: < 1000 nM for the first, < 10000 nM for the second.

`N#Cc1ccc2c(c1)C[C@@H](NC(=O)c1cc3n(n1)CCN(CC1CCC1)C3)CO2` [Example 498] and `CC(C)(c1ccccn1)N1CCn2nc(C(=O)N[C@H]3COc4ccc(C#N)cc4C3)cc2C1` [Example 501] cannot be ordered by IC50: < 1000 nM for the first, < 10000 nM for the second.

`O=C(NC1COc2ccccc2C1)c1cc2n(n1)CCN(c1ccc(F)cc1)C2` (stereo not drawn) [Example 508] and `O=C(NC1COc2ccccc2C1)c1cc2n(n1)CCN(C(=O)CCc1ccccc1)C2` (stereo not drawn) [Example 510] cannot be ordered by IC50: < 1000 nM for the first, < 10000 nM for the second.
